Source: patent publication US7511145B2 (Genelabs Technologies, Inc., priority 2003, dated 2009)

Key:
HCV-NS5b = biological target: T1, HCV-NS5b (Hepatitis C virus genotype 1b, UniProt Q9WMX2); assay: HCV-NS5b enzyme assay (incorporation of radiolabeled UTP); type: biochemical; details: for inhibition at 33 µM: enzyme inhibition at compound concentration of 33 uM; for inhibition at 100 µM: read-out: % inh@100, enzyme inhibition at compound concentration of 100 uM
T1 construct: (His)6 (C); made in house; host or cells: XL-1 cells (E. coli), IPTG-inducible plasmid, nickel-NTA purification
Procedure, shortened: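 His6-tagged NS5b lacking the C-terminal 21 residues, expressed in XL-1 and Ni-NTA purified. Reaction at pH 7.5 with 5 mM MgCl2, 10 μM each NTP including [3H]-UTP and biotinylated HCV heteropolymeric template, 2 h at 37° C; SPA read-out; % inhibition at 100 and 33 uM versus no-compound control, background subtracted.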

[1] = cited from earlier work

Row | SMILES | inhibition at 33 µM (HCV-NS5b) | inhibition at 100 µM (HCV-NS5b) | teratogenicity / embryotoxicity ([1]; human, in vivo) | patients with significant hemolysis ([1]; patients treated at currently recommended doses)
1 | O=C(O)c1ccc2c(c1)nc(-c1ccc3nc(-c4cc(C(=O)N5CCCC5)ccc4-c4ccc(F)cc4)ccc3c1)n2C1CCCCC1 [Compound 549, 1-Cyclohexyl-2-{2-[4′-fluoro-4-(pyrrolidine-1-carbonyl)biphen-2-yl]quinolin-6-yl}-1H-benzimidazole-5-carboxylic acid] | 100% | 102% |  | 
2 | CC(C)N(C(=O)c1ccc2cc(-c3nc4cc(C(=O)O)ccc4n3C3CCCCC3)ccc2n1)c1ccc(Cl)cc1 [Compound 550, 2-{2-[(4-Chlorophenyl)isopropylcarbamoyl]quinolin-6-yl}-1-cyclohexyl-1H-benzimidazole-5-carboxylic acid] | 99.1% | 102% |  | 
3 | O=C(O)c1ccc2c(c1)nc(-c1ccc3nc(C(=O)N(c4ccc(Cl)cc4)C4CCCCC4)ccc3c1)n2C1CCCCC1 [Compound 551, 2-{2-[(4-Chlorophenyl)cyclohexylcarbamoyl]quinolin-6-yl}-1-cyclohexyl-1H-benzimidazole-5-carboxylic acid] | 87.5% | 95.7% |  | 
4 | COc1ccc(-c2ccccc2OC)c(-c2ccc3cc(-c4nc5cc(C(=O)O)ccc5n4C4CCCCC4)ccc3n2)c1 [Compound 552, 1-Cyclohexyl-2-[2-(4,2′-dimethoxy-biphen-2-yl)-quinolin-6-yl]-1H-benzoimidazole-5-carboxylic acid] | 101% | 101% |  | 
5 | COc1ccc(-c2ccc(Cl)cc2)c(-c2ccc3cc(-c4nc5cc(C(=O)O)ccc5n4C4CC(C)CC(C)(C)C4)ccc3n2)c1 (centres unmarked) [Compound 555, 2-[2-(4′-chloro-4-methoxy-biphen-2-yl)-quinolin-6-yl]-1-(3,3,5-trimethyl-cyclohexyl)-1H-benzoimidazole-5-carboxylic acid] | 101% | 101% |  | 
6 | COc1ccc(-c2ccc(Cl)cc2)c(-c2ccc3cc(-c4nc5cc(C(=O)O)ccc5n4C4CCCCC4C)ccc3n2)c1 (centres unmarked) [Compound 556, 2-[2-(4′-Chloro-4-methoxy-biphen-2-yl)-quinolin-6-yl]-1-(2-methyl-cyclohexyl)-1H-benzoimidazole-5-carboxylic acid] | 103% | 102% |  | 
7 | CCc1ccc(-c2ccc(OC)cc2-c2ccc3cc(-c4nc5cc(C(=O)O)ccc5n4C4CCCCC4)ccc3n2)cc1 [Compound 557, 1-Cyclohexyl-2-[2-(4′-ethyl-4-methoxy-biphen-2-yl)-quinolin-6-yl]-1H-benzoimidazole-5-carboxylic acid] | 103% | 101% |  | 
8 | COc1ccc(-c2ccc(Cl)cc2)c(-c2ccc3cc(-c4nc5cc(C(=O)O)ccc5n4C4CCNCC4)ccc3n2)c1 [Compound 558, 2-[2-(4′-Chloro-4-methoxy-biphen-2-yl)-quinolin-6-yl]-1-piperidin-4-yl-1H-benzoimidazole-5-carboxylic acid] | 32.5% | 77.3% |  | 
9 | COc1ccc(-c2ccc(Cl)cc2)c(-c2ccc3cc(-c4nc5cc(C(=O)O)ccc5n4Cc4ccccc4)ccc3n2)c1 [Compound 559, 1-Benzyl-2-[2-(4′-chloro-4-methoxy-biphen-2-yl)-quinolin-6-yl]-1H-benzoimidazole-5-carboxylic acid] | 101% | 101% |  | 
10 | COc1ccc(-c2ccc(F)c(F)c2)c(-c2ccc3cc(-c4nc5cc(C(=O)O)ccc5n4C4CCCCC4)ccc3n2)c1 [Compound 560, 1-Cyclohexyl-2-[2-(3′,4′-difluoro-4-methoxy-biphen-2-yl)-quinolin-6-yl]-1H-benzoimidazole-5-carboxylic acid] | 101% | 101% |  | 
11 | COc1ccc(-c2cc(Cl)cc(Cl)c2)c(-c2ccc3cc(-c4nc5cc(C(=O)O)ccc5n4C4CCCCC4)ccc3n2)c1 [Compound 562, 1-Cyclohexyl-2-[2-(3′,5′-dichloro-4-methoxy-biphen-2-yl)-quinolin-6-yl]-1H-benzoimidazole-5-carboxylic acid] | 102% | 101% |  | 
12 | O=C(O)c1ccc2c(c1)nc(-c1ccc3nc(-c4cc(F)ccc4-c4ccc(Cl)cc4)ccc3c1)n2C1CCCCC1 [Compound 563, 2-[2-(4′-Chloro-4-fluoro-biphen-2-yl)-quinolin-6-yl]-1-cyclohexyl-1H-benzoimidazole-5-carboxylic acid] | 101% | 101% |  | 
13 | CCC(CC)n1c(-c2ccc3nc(-c4cc(OC)ccc4-c4ccc(Cl)cc4)ccc3c2)nc2cc(C(=O)O)ccc21 [Compound 564, 2-[2-(4′-Chloro-4-methoxy-biphen-2-yl)-quinolin-6-yl]-1-(1-ethyl-propyl)-1H-benzoimidazole-5-carboxylic acid] | 102% | 101% |  | 
14 | O=C(O)c1ccc2c(c1)nc(-c1ccc3nc(-c4cc5c(cc4-c4ccc(Cl)cc4)OCCCO5)ccc3c1)n2C1CCCCC1 [Compound 565, 2-{2-[8-(4-chloro-phenyl)-3,4-dihydro-2H-benzo[b][1,4]dioxepin-7-yl]-quinolin-6-yl}-1-cyclohexyl-1H-benzoimidazole-5-carboxylic acid] | 102% | 100% |  | 
15 | COc1ccc(-c2ccc(Cl)cc2)c(-c2ccc3cc(-c4nc5cc(C(=O)O)ccc5n4CC4CCCO4)ccc3n2)c1 (centres unmarked) [Compound 566, 2-[2-(4′-chloro-4-methoxy-biphen-2-yl)-quinolin-6-yl]-1-(tetrahydrofuran-2-yl-methyl)-1H-benzoimidazole-5-carboxylic acid] | 99.2% | 100% |  | 
16 | O=C(O)c1ccc2c(c1)nc(-c1ccc3nc(-c4cc(Cl)ccc4-c4ccc(Cl)cc4)ccc3c1)n2C1CCCCC1 [Compound 567, 1-cyclohexyl-2-[2-(4,4′-dichloro-biphen-2-yl)-quinolin-6-yl]-1H-benzoimidazole-5-carboxylic acid] | 101% | 97.7% |  | 
17 | COc1ccc(-c2ccc(Cl)cc2)c(-c2ccc3cc(-c4nc5cc(C(=O)O)ccc5n4C4CC5CCC4C5)ccc3n2)c1 (centres unmarked) [Compound 568, 1-bicyclo[2.2.1]hept-2-yl-2-[2-(4′-chloro-4-methoxy-biphen-2-yl)-quinolin-6-yl]1H-benzoimidazole-5-carboxylic acid] | 101% | 100% |  | 
18 | Nc1ccc(-c2ccc(Cl)cc2)c(-c2ccc3cc(-c4nc5cc(C(=O)O)ccc5n4C4CCCCC4)ccc3n2)c1 [Compound 569, 2-[2-(4-amino-4′-chloro-biphen-2-yl)-quinolin-6-yl]-1-cyclohexyl-1H-benzoimidazole-5-carboxylic acid] | 101% | 101% |  | 
19 | NC(=O)c1ncn([C@@H]2O[C@H](CO)[C@@H](O)[C@H]2O)n1 [Ribavirin, ribavirin] |  |  | teratogenic and embryotoxic | 10-20%
